From patent US8852928B2, “LexA-based chemical-inducible gene expression system for use in transgenic animals” (Temasek Life Sciences Laboratory Limited, priority 2007, dated 2014) come the findings set out here.

“Also recorded” adds a separate entry of the source.

This assay deals with T1, LexPR transactivator (Homo sapiens, UniProt P06401).
T1 construct: expressed in transfected cells; host or cells: germline-transgenic zebrafish (Danio rerio) carrying the Ds transposon driver cassette pDs(krt8:LPR-LOP:G4) or derivatives
T1 sequence (P06401 640-914): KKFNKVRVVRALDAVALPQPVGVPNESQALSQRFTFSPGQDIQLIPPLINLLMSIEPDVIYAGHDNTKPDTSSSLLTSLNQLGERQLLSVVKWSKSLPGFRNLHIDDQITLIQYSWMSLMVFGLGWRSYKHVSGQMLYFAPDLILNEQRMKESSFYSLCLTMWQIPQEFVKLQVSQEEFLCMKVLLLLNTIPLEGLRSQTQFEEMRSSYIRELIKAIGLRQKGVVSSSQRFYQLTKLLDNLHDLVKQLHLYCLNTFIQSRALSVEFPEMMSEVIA
In words: Trans-activation of mCherry effector in effector and double transgenic fish. Type of assay: in vivo, zebrafish. The note with it: 1 μM. As to the method: Two independent driver lines with different LexPR transactivator expression patterns (shown on FIGS. 4A, 4D) were crossed with two independent transgenic effector lines, which carried mCherry gene under control of the LexOP. […] Images were captured at 96 hours post fertilization.
This effector cassette harbors a gene for red fluorescent protein “mCherry” under the control of the LexOP sequence (Example 3).

As to `CC#C[C@]1(O)CC[C@H]2[C@@H]3CCC4=CC(=O)CCC4=C3[C@@H](c3ccc(N(C)C)cc3)C[C@@]21C` [mifepristone], the “Background mCherry fluorescence in effector lines (effector cassette only)” value is given as “No background mCherry fluorescence was detected; also recorded: not detected”; the “Reporter expression in double transgenic embryos (driver and effector)” value was “both reporters (EGFP/driver and mCherry/effector) were co-expressed in the same cells”.
